Starred links: 1 amine or outer side, 2 acyl side, 3 side chain; linkers in the order of their positions; H or OH if unused. Non-standard residues stand in square brackets, D forms with d. Residues, ends and D or L forms follow the SMILES beside them. *: point of attachment. X8 = O=C([C@H](Cc1ccc2ccccc2n1)N[*:1])[*:2]; Phe(4-NH2) = Nc1ccc(C[C@H](N)C(=O)O)cc1; 1Nal = N[C@@H](Cc1cccc2ccccc12)C(=O)O; 2Nal = N[C@@H](Cc1ccc2ccccc2c1)C(=O)O; Arg(Me) = CNC(=N)NCCC[C@H](N)C(=O)O; Fmoc = O=C(OCC1c2ccccc2-c2ccccc21)*; Cha = N[C@@H](CC1CCCCC1)C(=O)O; azaGly = NNC(=O)O
Target: T1, hOT7T175 (Homo sapiens, UniProt Q969F8, L364H)
T1 construct: expressed in transfected cells
Experiment: Intracellular Ca ion level-increasing activity using FLIPR (180 seconds; specific activity to Metastin (1-54))
Assay type: cell-based
Details: hOT7T175/CHO, relative to Metastin (1-54) = 1

T1 sequence (Q969F8 whole entry L364H): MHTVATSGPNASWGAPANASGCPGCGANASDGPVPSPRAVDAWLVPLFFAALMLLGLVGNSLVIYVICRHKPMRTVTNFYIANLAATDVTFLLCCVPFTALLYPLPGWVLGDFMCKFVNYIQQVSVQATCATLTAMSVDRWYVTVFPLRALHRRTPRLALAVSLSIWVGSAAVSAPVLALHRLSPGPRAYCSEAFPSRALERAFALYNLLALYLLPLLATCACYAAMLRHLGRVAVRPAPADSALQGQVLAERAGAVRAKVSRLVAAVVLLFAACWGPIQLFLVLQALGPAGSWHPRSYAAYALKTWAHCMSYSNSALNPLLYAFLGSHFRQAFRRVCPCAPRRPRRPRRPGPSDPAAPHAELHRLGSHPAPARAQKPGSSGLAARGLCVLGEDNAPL

Compound	Specific Act. (intracellular Ca ion level-increasing activity, specific activity to Metastin (1-54))
CC(C)C[C@H](NC(=O)CNC(=O)[C@H](Cc1ccccc1)NC(=O)[C@H](CO)NC(=O)[C@H](CC(N)=O)NC(=O)[C@H](Cc1c[nH]c2ccccc12)NC(=O)[C@H](CC(N)=O)NC(=O)[C@@H](N)Cc1ccc(O)cc1)C(=O)N[C@@H](CCCNC(=N)N)C(=O)N[C@@H](Cc1ccc2ccccc2c1)C(N)=O [Compound No. 110] (H-YNWNSFGLR[2Nal]-NH2)	20
CC(C)C[C@H](NC(=O)CNC(=O)[C@H](Cc1ccccc1)NC(=O)[C@H](CO)NC(=O)[C@H](CC(N)=O)NC(=O)[C@H](Cc1c[nH]c2ccccc12)NC(=O)OCC1c2ccccc2-c2ccccc21)C(=O)N[C@@H](CCCNC(=N)N)C(=O)N[C@@H](Cc1ccccc1)C(N)=O [Compound No. 54] (Fmoc-WNSFGLRF-NH2)	5
CC(C)C[C@H](NC(=O)CNC(=O)[C@H](Cc1ccccc1)NC(=O)[C@H](CO)NC(=O)[C@H](CC(N)=O)NC(=O)[C@H](Cc1c[nH]c2ccccc12)NC(=O)[C@H](CC(N)=O)NC(=O)[C@H](Cc1ccc(O)cc1)NC(=O)[C@H](CC(N)=O)NC(=O)[C@@H]1CCCN1C(=O)[C@@H](N)CC(C)C)C(=O)N[C@@H](CCCNC(=N)N)C(=O)N[C@@H](Cc1ccccc1)C(N)=O [Compound No. 32, reference compound]	10
CNC(=N)NCCC[C@H](NC(=O)[C@H](CC(C)C)NC(=O)CNC(=O)[C@H](Cc1ccccc1)NC(=O)[C@H](CO)NC(=O)[C@H](CC(N)=O)NC(=O)[C@@H](Cc1c[nH]c2ccccc12)NC(=O)[C@H](CC(N)=O)NC(=O)[C@H](N)Cc1ccc(O)cc1)C(=O)N[C@@H](Cc1ccccc1)C(N)=O [Compound No. 142, D-Tyr-Asn-D-Trp-Asn-Ser-Phe-Gly-Leu-Arg(Me)-Phe-NH2]	2
COc1ccc(C[C@H](NC(=O)[C@H](CCCNC(=N)N)NC(=O)[C@H](CC(C)C)NC(=O)CNC(=O)[C@H](Cc2ccccc2)NC(=O)[C@H](CO)NC(=O)[C@H](CC(N)=O)NC(=O)[C@H](Cc2c[nH]c3ccccc23)NC(=O)[C@H](CC(N)=O)NC(=O)[C@@H](N)Cc2ccc(O)cc2)C(N)=O)cc1 [Compound No. 18] (H-YNWNSFGLRY(Me)-NH2)	1
CNC(=N)NCCC[C@H](NC(=O)[C@H](CC(C)C)NC(=O)NNC(=O)[C@H](Cc1ccccc1)NC(=O)[C@H](CO)NC(=O)[C@H](CC(N)=O)NC(=O)[C@H](Cc1c[nH]c2ccccc12)NC(=O)[C@@H](CC(N)=O)NC(=O)[C@H](N)Cc1ccc(O)cc1)C(=O)N[C@@H](Cc1ccccc1)C(N)=O [Compound No. 237, D-Tyr-D-Asn-Trp-Asn-Ser-Phe-AzaGly-Leu-Arg(Me)-Phe-NH2]	3
CCCNC(=N)NCCC[C@H](NC(=O)[C@H](CC(C)C)NC(=O)CNC(=O)[C@H](Cc1ccccc1)NC(=O)[C@H](CO)NC(=O)[C@H](CC(N)=O)NC(=O)[C@H](Cc1c[nH]c2ccccc12)NC(=O)[C@H](CC(N)=O)NC(=O)[C@H](N)Cc1ccc(O)cc1)C(=O)N[C@@H](Cc1ccccc1)C(N)=O [Compound No. 193]	½
CNC(=N)NCCC[C@H](NC(=O)[C@H](CC(C)C)NC(=O)CNC(=O)[C@H](Cc1ccccc1)NC(=O)[C@H](CO)NC(=O)[C@H](CC(N)=O)NC(=O)[C@@H](NC(=O)[C@H](CC(N)=O)NC(=O)[C@H](N)Cc1ccc(O)cc1)[C@@H](C)O)C(=O)N[C@@H](Cc1ccccc1)C(N)=O [Compound No. 205] (H-[dY]NTNSFGL[Arg(Me)]F-NH2)	10
CNC(=N)NCCC[C@H](NC(=O)[C@H](CC(C)C)NC(=O)CNC(=O)[C@H](Cc1ccccc1)NC(=O)[C@H](CO)NC(=O)[C@H](CC(N)=O)NC(=O)[C@H](Cc1c[nH]c2ccccc12)NC(=O)[C@@H](CC(N)=O)NC(=O)[C@H](N)Cc1ccc(O)cc1)C(=O)N[C@@H](Cc1ccccc1)C(N)=O [Compound No. 230]	10
CC(C)C[C@H](NC(=O)CNC(=O)[C@H](Cc1ccccc1)NC(=O)[C@H](CO)NC(=O)[C@H](CC(N)=O)NC(=O)[C@H](Cc1c[nH]c2ccccc12)NC(=O)[C@H](CC(N)=O)NC(=O)[C@@H](N)Cc1ccc(O)cc1)C(=O)N[C@@H](CCCNC(=N)N)C(=O)N[C@@H](Cc1c(F)c(F)c(F)c(F)c1F)C(N)=O [Compound No. 111]	3
CNC(=N)NCCC[C@H](NC(=O)[C@H](CC(C)C)NC(=O)CNC(=O)[C@H](Cc1ccccc1)NC(=O)[C@H](CO)NC(=O)[C@H](CC(N)=O)NC(=O)[C@@H](Cc1c[nH]c2ccccc12)NC(=O)[C@H](N)CC(N)=O)C(=O)N[C@@H](Cc1ccccc1)C(N)=O [Compound No. 225, D-Asn-D-Trp-Asn-Ser-Phe-Gly-Leu-Arg(Me)-Phe-NH2] (H-[dN][dW]NSFGL[Arg(Me)]F-NH2)	1
CC(C)C[C@H](NC(=O)CNC(=O)[C@H](Cc1ccccc1)NC(=O)[C@H](CO)NC(=O)[C@H](CC(N)=O)NC(=O)[C@H](Cc1c[nH]c2ccccc12)NC(=O)[C@H](CC(N)=O)NC(=O)[C@@H](N)Cc1ccc(O)cc1)C(=O)N[C@@H](CCCNC(=N)N)C(=O)N[C@@H](Cc1cccc(C(F)(F)F)c1)C(N)=O [Compound No. 200]	10
CCNC(=N)NCCC[C@H](NC(=O)[C@H](CC(C)C)NC(=O)CNC(=O)[C@H](Cc1ccccc1)NC(=O)[C@H](CO)NC(=O)[C@H](CC(N)=O)NC(=O)[C@H](Cc1c[nH]c2ccccc12)NC(=O)[C@H](CC(N)=O)NC(=O)[C@@H](N)Cc1ccc(O)cc1)C(=O)N[C@@H](Cc1ccccc1)C(N)=O [Compound No. 220]	5
CCCC[C@H](NC(=O)CNC(=O)[C@H](Cc1ccccc1)NC(=O)[C@H](CO)NC(=O)[C@H](CC(N)=O)NC(=O)[C@H](Cc1c[nH]c2ccccc12)NC(=O)[C@H](CC(N)=O)NC(=O)[C@@H](N)Cc1ccc(O)cc1)C(=O)N[C@@H](CCCNC(=N)N)C(=O)N[C@@H](Cc1ccccc1)C(N)=O [Compound No. 105, Tyr-Asn-Trp-Asn-Ser-Phe-Gly-Nle-Arg-Phe-NH2]	1
CNC(=N)NCCC[C@H](NC(=O)[C@H](CC(C)C)NC(=O)NNC(=O)[C@H](Cc1ccccc1)NC(=O)[C@H](CO)NC(=O)[C@H](CC(N)=O)NC(=O)[C@H](Cc1ccc(N)cc1)NC(=O)[C@H](CC(N)=O)NC(=O)[C@H](N)Cc1ccc(O)cc1)C(=O)N[C@@H](Cc1ccccc1)C(N)=O [Compound No. 250, D-Tyr-Asn-Phe(4NH2)-Asn-Ser-Phe-AzaGly-Leu-Arg(Me)-Phe-NH2] (H-[dY]N[Phe(4-NH2)]NSF[azaGly]L[Arg(Me)]F-NH2)	1
CNC(=N)NCCC[C@H](NC(=O)[C@H](CC(C)C)NC(=O)NNC(=O)[C@H](Cc1ccccc1)NC(=O)[C@H](CO)NC(=O)[C@H](CC(N)=O)NC(=O)[C@H](Cc1cccc2ccccc12)NC(=O)[C@H](CC(N)=O)NC(=O)[C@H](N)Cc1ccc(O)cc1)C(=O)N[C@@H](Cc1ccccc1)C(N)=O [Compound No. 245, D-Tyr-Asn-Nal(1)-Asn-Ser-Phe-AzaGly-Leu-Arg(Me)-Phe-NH2] (H-[dY]N[1Nal]NSF[azaGly]L[Arg(Me)]F-NH2)	1
CC(C)C[C@H](NC(=O)CNC(=O)[C@H](Cc1ccccc1)NC(=O)[C@H](CO)NC(=O)[C@H](CC(N)=O)NC(=O)[C@H](Cc1c[nH]c2ccccc12)NC(=O)[C@H](CC(N)=O)NC(=O)[C@@H](N)Cc1ccc(O)cc1)C(=O)N[C@@H](CCCNC(=N)N)C(=O)N[C@@H](Cc1ccc(Cl)c(Cl)c1)C(N)=O [Compound No. 199]	3
CC(C)C[C@H](NC(=O)CNC(=O)[C@H](Cc1ccccc1)NC(=O)[C@H](CO)NC(=O)[C@H](CC(N)=O)NC(=O)[C@H](Cc1c[nH]c2ccccc12)NC(=O)[C@H](CC(N)=O)NC(=O)[C@@H](N)Cc1ccc(O)cc1)C(=O)N[C@@H](CCCNC(=N)N)C(=O)N[C@@H](Cc1cccc(F)c1)C(N)=O [Compound No. 197]	10
H-YNWNSFALRF-NH2 [Compound No. 50]	30
CC(C)C[C@H](NC(=O)CNC(=O)[C@H](Cc1ccccc1)NC(=O)[C@H](CO)NC(=O)[C@H](CC(N)=O)NC(=O)[C@H](Cc1c[nH]c2ccccc12)NC(=O)[C@H](CC(N)=O)NC(=O)[C@@H](N)Cc1ccc(O)cc1)C(=O)N[C@@H](CCCNC(=N)N)C(=O)N[C@@H](Cc1ccc2ccccc2n1)C(N)=O [Compound No. 201] (H-YNWNSFGLR[X8]-NH2)	1
CC(C)C[C@H](NC(=O)CNC(=O)[C@H](Cc1ccccc1)NC(=O)[C@H](CO)NC(=O)[C@H](CC(N)=O)NC(=O)[C@H](Cc1c[nH]c2ccccc12)NC(=O)[C@H](CC(N)=O)NC(=O)[C@@H](N)Cc1ccc(O)cc1)C(=O)N[C@@H](CCCNC(=N)N)C(=O)N[C@@H](Cc1ccc(F)c(F)c1)C(N)=O [Compound No. 198]	10
CC(C)C[C@H](NC(=O)CNC(=O)[C@H](Cc1ccccc1)NC(=O)[C@H](CO)NC(=O)[C@H](CC(N)=O)NC(=O)[C@H](Cc1c[nH]c2ccccc12)NC(=O)[C@H](CC(N)=O)NC(=O)[C@@H](N)Cc1ccc(O)cc1)C(=O)N[C@@H](CCCNC(=N)N)C(=O)N[C@@H](Cc1ccccc1)C(N)=O [Compound No. 3, reference compound]	10
CNC(=N)NCCC[C@H](NC(=O)[C@H](CC(C)C)NC(=O)CNC(=O)[C@H](CC1CCCCC1)NC(=O)[C@H](CO)NC(=O)[C@H](CC(N)=O)NC(=O)[C@H](Cc1c[nH]c2ccccc12)NC(=O)[C@H](CC(N)=O)NC(=O)[C@H](N)Cc1ccc(O)cc1)C(=O)N[C@@H](Cc1ccccc1)C(N)=O [Compound No. 203, D-Tyr-Asn-Trp-Asn-Ser-Cha-Gly-Leu-Arg(Me)-Phe-NH2] (H-[dY]NWNS[Cha]GL[Arg(Me)]F-NH2)	10

Source: US8778871B2 (Takeda Pharmaceutical Company Limited, priority 2004, dated 2014)
